How the values were obtained:
IL-17RC [1] = test: IL-17RC gene expression by qPCR in IL-6/23-stimulated murine neutrophils; assay type: cell-based; settings: IL-6/23 1 h, FIG. 6A
Excerpt: Total bone marrow-derived cells were isolated from mouse femurs and tibias by flushing with RPMI and an 18-gauge needle. Erythrocytes were lysed with 1× lysis buffer (eBioscience), and bone marrow cells were separated on a Percoll (Fisher) gradient by density centrifugation (52%, 69%, and 78%). Cells at the 69-78% interface were harvested, and neutrophil purity (>98%) confirmed by flow cytometry and Wright-Giemsa staining.
(§1) Murine or human neutrophils were suspended at a density of 10^6 cells/ml and incubated with […] of recombinant mouse or human IL-6 and 2 μg/ml IL-23 in RPMI, and the cells were maintained for 1-3 h at 37° C. in 5% CO2. Various inhibitors were used for assessing STAT3 activation. For STAT3, neutrophils were treated with either the STAT3-SH2 inhibitor, Stattic (20 μM) obtained from Tocris, or the JAK-1, 2 inhibitor, INC424, (aka Ruxolitinib; 20 μM (Selleck BioChem)). For the determination of RORγt-dependent signaling, SR1001 (20 μM; Sigma) was used, which inhibits RORγt binding to the IL-17 promoter site. All inhibitors were added to neutrophils 2 h prior to recombinant IL-6 and IL-23 stimulation.
(§2) Neutrophil and corneal cell RNA was extracted using the RNeasy mini kit according to the manufacturer's directions (Qiagen, Valencia, Calif.). The quality of RNA was checked by spectrophotometry, and only samples with a 260/280 ratio of 2.0 were used to generate cDNA. The SuperScript First Strand synthesis system (Invitrogen) was used to generate cDNA according to the manufacturer's directions.
(§3) The SYBR green system (Applied Biosystems, Carlsbad, Calif.) was utilized for quantitative PCR (qPCR) using ABI Biosystems. PCR products were then run on a 1% agarose gel, and visualized using ethidium bromide. PCR products were compared to Actb (encoding the β-actin gene) or GAPDH as the controls for gel loading.

IL-17RC [2] = test: IL-17RC gene expression by qPCR in IL-6/23-stimulated human neutrophils; assay type: cell-based; settings: IL-6/23 1 h, FIG. 6B
Description: Neutrophils were isolated from peripheral blood of healthy donors. Peripheral blood was incubated in 3% Dextran, and neutrophils isolated by Ficoll gradient centrifugation (Fisher Scientific), with neutrophil purity determined by staining with Wright-Giemsa.
as §1, §2, §3

IL-17A = IL-17A expression in IL-6/23-stimulated murine bone marrow neutrophils (qPCR, ELISA, intracellular flow cytometry); assay type: cell-based, C57BL/6 mice; settings: discussion restatement, species not stated
Excerpt: Total bone marrow-derived cells were isolated from mouse femurs and tibias by flushing with RPMI and an 18-gauge needle. Erythrocytes were lysed with 1× lysis buffer (eBioscience), and bone marrow cells were separated on a Percoll (Fisher) gradient by density centrifugation (52%, 69%, and 78%). Cells at the 69-78% interface were harvested, and neutrophil purity (>98%) confirmed by flow cytometry and Wright-Giemsa staining. IL-17A protein production was quantified by 2-site ELISA, according to the manufacturer's directions (R&D Biosciences). Murine or human neutrophils were suspended at a density of 10^6 cells/ml and incubated with […] of recombinant mouse or human IL-6 and 2 μg/ml IL-23 in RPMI, and the cells were maintained for 1-3 h at 37° C. in 5% CO2. Various inhibitors were used for assessing STAT3 activation. […] For the determination of RORγt-dependent signaling, SR1001 (20 μM; Sigma) was used, which inhibits RORγt binding to the IL-17 promoter site. All inhibitors were added to neutrophils 2 h prior to recombinant IL-6 and IL-23 stimulation. […] Ten corneas were pooled and analyzed by intracellular flow cytometry. […] Cells were analyzed using a C6 Accuri flow cytometer (BD). […] The SYBR green system (Applied Biosystems, Carlsbad, Calif.) was utilized for quantitative PCR (qPCR) using ABI Biosystems. […]

[3] = test system: bone marrow-derived murine neutrophils; test: ROS production (CFDA) by murine bone marrow neutrophils incubated with Aspergillus hyphae; assay type: cell-based, C57BL/6 mice; settings: IL-6/23-stimulated, inhibitor 20 μM, FIG. 6C
Description: (§4) Murine and human neutrophils were incubated with p-STAT3 (20 μM Stattic or 20 μM INC424) or RORγt inhibitors (20 μM SR1001) for 2 h. Then the cells were stimulated with […] of rIL-6 and 2 μg/ml of rIL-23 for 3 h, washed, and 2×10^5 bone marrow-derived murine neutrophils or 10^5 human peripheral blood neutrophils, with or without recombinant IL-17A, were added to each well with growing hyphae. RPMI media was used as positive control (unimpaired growth), and PBS was used as a negative control (no growth (data not shown)). After 16 h the wells were washed with PBS and the dsRed fungal mass was quantified in a 96-well fluorometer at 550/600 nm excitation/emission filter (Synergy HT, Biotek).
(§5) In vitro ROS production measured by CFDA was previously described. Briefly, 100 μg/100 μl of A. fumigatus hyphal extract (AspHE) were incubated with 2×10^5 murine or human neutrophils. Neutrophils were treated for 1 h with 1 μM Carboxyfluorescein diacetate (H2CFDA (Sigma)), which will fluoresce following ROS oxidation. Neutrophils were collected and analyzed by flow cytometry. H2CFDA pulsed neutrophils that had not been incubated with AspHE were used to set the ROS histogram gate. The average mean intensity was calculated by Accuri flow software and graphed in Prism.

[4] = test system: human peripheral blood neutrophils; test: ROS production (CFDA) by human peripheral blood neutrophils incubated with Aspergillus hyphae; assay type: cell-based; settings: IL-6/23-stimulated, inhibitor 20 μM, FIG. 6E
Description: as §4, §5

A. fumigatus hyphae [5] = test: In vitro fungal killing assay (hyphal coincubation) with murine neutrophils; assay type: cell-based, Aspergillus fumigatus; settings: IL-6/23-stimulated, inhibitor 20 μM, FIG. 6D
Excerpt: (§6) Aspergillus strains—For cornea infections and in vitro fungal killing assays, an RFP expressing strain of A. fumigatus (Af-dsRed) was used. This strain is gpdA promoter driven to constitutively express monomeric dsRed. For subcutaneous “priming” injections, heat-killed, swollen conidia Aspergillus fumigatus strain Af-BP was used. For the Aspergillus hyphal extract used in ROS assay, A. fumigatus strain Af-BP hyphae were pulverized in liquid nitrogen, filtered through a 30 μm pre-separation filter (Miltenyi Biotec) and protein measured by the BCA method (Pierce). Aspergillus hyphal extracts (AspHE) were stored at −20° C. and used at a final concentration of 1 mg/ml.
(§7) A hyphal coincubation assay was used to study the ability of murine and human neutrophils to inhibit A. fumigatus hyphal growth as described. Briefly, 12,500 A. fumigatus dsRed expressing conidia (strain Af-dsRed) per 200 μl Sabouraud dextrose media were added to wells of black-walled 96 well plates with an optically clear bottom (CoStar 3720). After 6 h, the conidia had germinated and the hyphae became adherent to the wells, at which time the medium was removed.
as §4

A. fumigatus hyphae [6] = test: In vitro fungal killing assay (hyphal coincubation) with human neutrophils; assay type: cell-based, Aspergillus fumigatus; settings: IL-6/23-stimulated, inhibitor 20 μM, FIG. 6F
Excerpt: as §6, §7, §4

## N#CC[C@H](C1CCCC1)n1cc(-c2ncnc3[nH]ccc23)cn1 [INC424, Ruxolitinib]
IL-17RC [1]
  IL-17RC expression: did not inhibit
IL-17RC [2]
  IL-17RC expression: did not inhibit

## CC(=O)Nc1nc(C)c(S(=O)(=O)Nc2ccc(C(O)(C(F)(F)F)C(F)(F)F)cc2)s1 [SR1001]
IL-17A
  IL-17 production in stimulated neutrophils: ablated
IL-17RC [1]
  IL-17RC expression: did not inhibit
IL-17RC [2]
  IL-17RC expression: did not inhibit
[3]; plus rIL-17A
  ROS production: ROS production was increased
[3]; without rIL-17A
  ROS production: not increased above the level produced by naïve neutrophils
[4]; plus rhIL-17A
  ROS production: increased ROS
[4]; without rhIL-17A
  ROS production: no increase in ROS
A. fumigatus hyphae [5]; plus rIL-17A
  hyphal killing activity: enhanced hyphal killing activity was detected
A. fumigatus hyphae [5]; without rIL-17A
  hyphal growth (fluorescent fungal mass): did not further impede hyphal growth
A. fumigatus hyphae [6]; plus rhIL-17A
  fluorescent fungal mass: decreased fungal mass
A. fumigatus hyphae [6]; without rhIL-17A
  fluorescent fungal mass: no increase in ROS (FIG. 6E) or decrease in fluorescent fungal mass
